# Measured values: article PMC8622415, “Inhibitory Effect of Chlorogenic Acid Analogues Comprising Pyridine and Pyrimidine on α-MSH-Stimulated Melanogenesis and Stability of Acyl Analogues in Methanol” (Pharmaceuticals, 2021)
# “And” between values parts separate entries of the source, which are not always exact repeats. Identical values can stand only once. Like-named read-outs stand apart in the source and are kept apart here.
# Assays:
# [1] = test system: B16 melanoma cells; experiment: Inhibition of α-MSH-stimulated melanin formation (melanin measurement); format: cell-based, Mouse; conditions: α-MSH 10.0 nM, melanin released into medium, absorbance 405 nm, read-out: IC50, inhibition of α-MSH-induced melanogenesis
# Procedure: Mouse melanoma B16 cells were cultured in a 96-well culture plate (2.5 × 10^3 cells/well). Culture media were washed from each culture plates after 24 h and treated with freshly prepared 10% FBS-DMEM medium, various concentrations (such as 0.5, 1.0, 3.0, 10.0, 30.0, and 100.0 µM) of compound samples, and stimulants (α-MSH, 10.0 nM). Then, it was incubated at 37 °C for 72 h, and the amount of melanin released into the medium was determined by measuring the absorbance at wavelength of 405 nm using spectrophotometer (Molecular Device, San Jose, CA, USA). The absorbance of stimulated cells using α-MSH was used as a control, and the inhibition level was calculated by subtracting the absorbance values of cells that were not stimulated. The absorbance values were compared with standard curves obtained with synthetic melanin. The synthetic melanin (Sigma-Aldrich, St. Louis, MO, USA) was dissolved in 0.85 M KOH-10% DMSO solution; then, it was serially diluted with 10% FBS-DMEM medium and then aliquoted into a 96-well culture plate. Then, the absorbance of melanin was measured by a spectrophotometer at 405 nm, and a standard curve was prepared. Using this value, the amount of melanin released out of the cell was directly calculated. Results obtained by three or more sets of experiments were expressed as mean ± standard error.
# [2] = Stability of CGA acyl analogues in methanol solution (HPLC); format: physicochemical; conditions: 25 °C
# Procedure: The stability of the synthesized acyl analogues was measured in methanol, since the acetyl analogue of CGA was highly unstable in methanol solution. First, 10 mg of the sample was dissolved in 2 mL of methanol and stored at 25 °C. Then, purity was analyzed using HPLC (Shimadzu LC solution, Kyoto, Japan) for 28 days. The samples in methanol solution were diluted 10 times in the HPLC mobile phase ((A) 0.5% formic acid in H2O (B) 0.5% formic acid in acetonitrile (ACN), A/B = 20/80) and injected in HPLC column (inertsil ODS-3V C18 column (250 × 4.00 mm i.d; 5 μm)). Finally, the amount of acyl compound remaining in the solution was measured by calculating the area under the curve of the HPLC chromatogram, and the results were expressed in percentage units.
smiles,measurement,setting,value
"COc1ccc(/C=C/C(=O)OC2CCCCC2)cc1OC [Compound 17, (E)-Cyclohexyl 3-(3,4-dimethoxyphenyl)acrylate]",IC50,"[1]; Mus musculus, B16, 72 h",> 100 µM
"OC[C@H]1O[C@@H](Oc2ccc(O)cc2)[C@H](O)[C@@H](O)[C@@H]1O [Arbutin, reference compound]",IC50,"[1]; Mus musculus, B16, 72 h",380 ± 9.5 µM
"CCCC(=O)Oc1ccc(/C=C/C(=O)OC2CCCCC2)cc1OC(=O)CCC [Compound 13a, (E)-4-(3-(Cyclohexyloxy)-3-oxoprop-1-en-1-yl)-1,2-phenylene dibutyrate]",IC50,"[1]; Mus musculus, B16, 72 h",1.1 ± 0.1 µM
same,IC50,[1]; 72 h,1 ± 0.1 µM
same,Amount remaining in methanol (HPLC area),[2]; day 0,99.3294%
same,Amount remaining in methanol (HPLC area),[2]; day 1,91.3520%
same,Amount remaining in methanol (HPLC area),[2]; day 2,85.3800%
same,Amount remaining in methanol (HPLC area),[2]; day 3,80.3685%
same,Amount remaining in methanol (HPLC area),[2]; day 4,75.4921%
same,Amount remaining in methanol (HPLC area),[2]; day 5,72.147%
same,Amount remaining in methanol (HPLC area),[2]; day 7,64.7751%
same,Amount remaining in methanol (HPLC area),[2]; day 9,59.4842%
same,Amount remaining in methanol (HPLC area),[2]; day 11,55.1819%
same,Amount remaining in methanol (HPLC area),[2]; day 21,43.3505%
same,Amount remaining in methanol (HPLC area),[2]; day 28,39% and 39.0229%
"CC(C)(C)C(=O)Oc1ccc(/C=C/C(=O)OC2CCCCC2)cc1OC(=O)C(C)(C)C [Compound 13c, (E)-4-(3-(Cyclohexyloxy)-3-oxoprop-1-en-1-yl)-1,2-phenylene bis(2,2-dimethylpropanoate)]",IC50,"[1]; Mus musculus, B16, 72 h",1.9 ± 0.1 µM
same,Amount remaining in methanol (HPLC area),[2]; day 0,99.5492%
same,Amount remaining in methanol (HPLC area),[2]; day 1,99.3034%
same,Amount remaining in methanol (HPLC area),[2]; day 2,99.1518%
same,Amount remaining in methanol (HPLC area),[2]; day 3,99.0038%
same,Amount remaining in methanol (HPLC area),[2]; day 4,98.8061%
same,Amount remaining in methanol (HPLC area),[2]; day 5,98.5395%
same,Amount remaining in methanol (HPLC area),[2]; day 7,97.9332%
same,Amount remaining in methanol (HPLC area),[2]; day 9,97.4173%
same,Amount remaining in methanol (HPLC area),[2]; day 11,96.8033%
same,Amount remaining in methanol (HPLC area),[2]; day 21,95.0243%
same,Amount remaining in methanol (HPLC area),[2]; day 28,94% and 94.0833%
"COc1ccc(-c2ccnc(NCc3cccc(C(F)(F)F)c3)n2)cc1OC [Compound 10f, 4-(3,4-Dimethoxyphenyl)-N-(3-(trifluoromethyl)benzyl)pyrimidin-2-amine]",IC50,"[1]; Mus musculus, B16, 72 h",20 ± 1 µM
CC(=O)Oc1ccc(/C=C/C(=O)OC2CCCCC2)cc1OC(C)=O [Compound 18],Amount remaining in methanol (HPLC area),[2]; day 0,99.5029%
same,Amount remaining in methanol (HPLC area),[2]; day 1,71.1918%
same,Amount remaining in methanol (HPLC area),[2]; day 2,55.5162%
same,Amount remaining in methanol (HPLC area),[2]; day 3,43.5699%
same,Amount remaining in methanol (HPLC area),[2]; day 4,33.7154%
same,Amount remaining in methanol (HPLC area),[2]; day 5,27.3752%
same,Amount remaining in methanol (HPLC area),[2]; day 7,16.5047%
same,Amount remaining in methanol (HPLC area),[2]; day 9,10.5572%
same,Amount remaining in methanol (HPLC area),[2]; day 11,6.9200%
same,Amount remaining in methanol (HPLC area),[2]; day 21,1.4408%
same,Amount decomposed in methanol solution,"[2]; within 10 days, HPLC",more than 90%
"COc1ccc(-c2ccnc(NCc3ccccc3Cl)c2)cc1OC [Compound 6d, N-(2-Chlorobenzyl)-4-(3,4-dimethoxyphenyl)pyridin-2-amine]",IC50,"[1]; Mus musculus, B16, 72 h",8.5 ± 0.7 µM
same,IC50,[1]; 72 h,8 ± 1 µM
"COc1ccc(-c2ccnc(NCc3ccccc3Cl)n2)cc1OC [Compound 10d, N-(2-Chlorobenzyl)-4-(3,4-dimethoxyphenyl)pyrimidin-2-amine]",IC50,"[1]; Mus musculus, B16, 72 h",40 ± 8 µM
"COc1ccc(-c2ccnc(NCc3ccc(C(F)(F)F)cc3)c2)cc1OC [Compound 6e, 4-(3,4-Dimethoxyphenyl)-N-(4-(trifluoromethyl)benzyl)pyridin-2-amine]",IC50,"[1]; Mus musculus, B16, 72 h",8.5 ± 0.7 µM
"COc1ccc(-c2ccnc(NCc3ccc(Cl)cc3)c2)cc1OC [Compound 6b, N-(4-Chlorobenzyl)-4-(3,4-dimethoxyphenyl)pyridin-2-amine]",IC50,"[1]; Mus musculus, B16, 72 h",4.5 ± 0.7 µM
"COc1ccc(-c2ccnc(NCc3cccc(C(F)(F)F)c3)c2)cc1OC [Compound 6f, 4-(3,4-Dimethoxyphenyl)-N-(3-(trifluoromethyl)benzyl)pyridin-2-amine]",IC50,"[1]; Mus musculus, B16, 72 h",2.5 ± 0.7 µM
"COc1ccc(-c2ccnc(NCc3ccccc3C(F)(F)F)c2)cc1OC [Compound 6g, 4-(3,4-Dimethoxyphenyl)-N-(2-(trifluoromethyl)benzyl)pyridin-2-amine]",IC50,"[1]; Mus musculus, B16, 72 h",7.5 ± 0.7 µM
"COc1ccc(-c2ccnc(NCc3ccc(C(F)(F)F)cc3)n2)cc1OC [Compound 10e, 4-(3,4-Dimethoxyphenyl)-N-(4-(trifluoromethyl)benzyl)pyrimidin-2-amine]",IC50,"[1]; Mus musculus, B16, 72 h",> 100 µM
"COc1ccc(-c2ccnc(NCc3ccccc3)c2)cc1OC [Compound 6a, N-Benzyl-4-(3,4-dimethoxyphenyl)pyridin-2-amine]",IC50,"[1]; Mus musculus, B16, 72 h",17 ± 4 µM
"O=C(/C=C/c1ccc(OC(=O)C2CCCCC2)c(OC(=O)C2CCCCC2)c1)OC1CCCCC1 [Compound 13d, (E)-4-(3-(Cyclohexyloxy)-3-oxoprop-1-en-1-yl)-1,2-phenylene dicyclohexanecarboxylate]",IC50,"[1]; Mus musculus, B16, 72 h",2.3 ± 0.2 µM
same,Amount remaining in methanol (HPLC area),[2]; day 0,98.9750%
same,Amount remaining in methanol (HPLC area),[2]; day 1,96.9973%
same,Amount remaining in methanol (HPLC area),[2]; day 2,95.8267%
same,Amount remaining in methanol (HPLC area),[2]; day 3,94.6557%
same,Amount remaining in methanol (HPLC area),[2]; day 4,93.5713%
same,Amount remaining in methanol (HPLC area),[2]; day 5,93.0573%
same,Amount remaining in methanol (HPLC area),[2]; day 7,91.6229%
same,Amount remaining in methanol (HPLC area),[2]; day 9,90.6724%
same,Amount remaining in methanol (HPLC area),[2]; day 11,89.8768%
same,Amount remaining in methanol (HPLC area),[2]; day 21,87.5571%
"COc1ccc(-c2ccnc(NCc3ccc(Cl)cc3)n2)cc1OC [Compound 10b, N-(4-Chlorobenzyl)-4-(3,4-dimethoxyphenyl)pyrimidin-2-amine]",IC50,"[1]; Mus musculus, B16, 72 h",54 ± 6 µM
"CCCCCC(=O)Oc1ccc(/C=C/C(=O)OC2CCCCC2)cc1OC(=O)CCCCC [Compound 13b, (E)-4-(3-(Cyclohexyloxy)-3-oxoprop-1-en-1-yl)-1,2-phenylene dihexanoate]",IC50,"[1]; Mus musculus, B16, 72 h",1.3 ± 0.4 µM
same,Amount remaining in methanol (HPLC area),[2]; day 0,99.8006%
same,Amount remaining in methanol (HPLC area),[2]; day 1,93.7356%
same,Amount remaining in methanol (HPLC area),[2]; day 2,89.9637%
same,Amount remaining in methanol (HPLC area),[2]; day 3,86.8066%
same,Amount remaining in methanol (HPLC area),[2]; day 4,83.9188%
same,Amount remaining in methanol (HPLC area),[2]; day 5,82.1086%
same,Amount remaining in methanol (HPLC area),[2]; day 7,77.5962%
same,Amount remaining in methanol (HPLC area),[2]; day 9,74.0389%
same,Amount remaining in methanol (HPLC area),[2]; day 11,70.6843%
same,Amount remaining in methanol (HPLC area),[2]; day 21,58.4127%
same,Amount remaining in methanol (HPLC area),[2]; day 28,52% and 52.5500%
"COc1ccc(-c2ccnc(NCc3cccc(Cl)c3)n2)cc1OC [Compound 10c, N-(3-Chlorobenzyl)-4-(3,4-dimethoxyphenyl)pyrimidin-2-amine]",IC50,"[1]; Mus musculus, B16, 72 h",32 ± 2 µM
"CC(C)COc1ccc(/C=C/C(=O)OC2CCCCC2)cc1OCC(C)C [Compound 15, (E)-Cyclohexyl 3-(3,4-diisobutoxyphenyl)acrylate]",IC50,"[1]; Mus musculus, B16, 72 h",> 100 µM
"COc1ccc(-c2ccnc(NCc3cccc(Cl)c3)c2)cc1OC [Compound 6c, N-(3-Chlorobenzyl)-4-(3,4-dimethoxyphenyl)pyridin-2-amine]",IC50,"[1]; Mus musculus, B16, 72 h",5 ± 1.4 µM
"O=c1cc(CO)occ1O [Kojic acid, reference compound]",IC50,"[1]; Mus musculus, B16, 72 h",54 ± 1.5 µM
"COc1ccc(-c2ccnc(NCc3ccccc3)n2)cc1OC [Compound 10a, N-Benzyl-4-(3,4-dimethoxyphenyl)pyrimidin-2-amine]",IC50,"[1]; Mus musculus, B16, 72 h",> 100 µM
